Data on 13 molecules can be found in the NIST ThermoML archive (doi:10.1016/j.jct.2015.09.002).

Each structure is given as a SMILES string. ± gives the expanded uncertainty stated by the source.

Data set [1] can be described thus: xn = mol fraction of the nth substance listed. The following applies: 93.2 kPa, Liquid, Vibrating tube method, x1 = 1.
For data set [2] the following is noted: 93.2 kPa, Liquid, Vibrating tube method.

As a reminder, the mass density is the mass of a sample divided by its volume.

Regarding `CC#N` [acetonitrile] + CC(C)(C)N, the mass density in data set [1] (293.15 K) was determined as 782.01 ± 2 kg/m3; in data set [1] (298.15 K), 776.61 ± 2 kg/m3; in data set [1] (303.15 K) it was 771.2 ± 2 kg/m3; in data set [1] (308.15 K) it was 765.75 ± 2 kg/m3.
For `CCCCN` [1-butanamine], the mass density in data set [2] (293.15 K) stood at 737.12 ± 2 kg/m3; in data set [2] (298.15 K), 732.33 ± 2 kg/m3; in data set [2] (303.15 K), 727.51 ± 2 kg/m3; in data set [2] (308.15 K) it was 722.66 ± 2 kg/m3.
As for `CCCCNCCCC` [dibutylamine], the mass density in data set [2] (293.15 K) worked out at 759.7 ± 2 kg/m3; in data set [2] (298.15 K), 755.61 ± 2 kg/m3; in data set [2] (303.15 K) it was 751.5 ± 2 kg/m3; in data set [2] (308.15 K), 747.38 ± 2 kg/m3.
As to `CC#N` [acetonitrile], the mass density in data set [2] (293.15 K) is recorded as 782.01 ± 2 kg/m3; in data set [2] (298.15 K), 776.61 ± 2 kg/m3; in data set [2] (303.15 K), 771.2 ± 2 kg/m3; in data set [2] (308.15 K), 765.75 ± 2 kg/m3.
With `CC#N` [acetonitrile] + CCCNCCC, the mass density in data set [1] (293.15 K) came out at 782.01 ± 2 kg/m3; in data set [1] (298.15 K), 776.61 ± 2 kg/m3; in data set [1] (303.15 K) it was 771.2 ± 2 kg/m3; in data set [1] (308.15 K), 765.75 ± 2 kg/m3.
The corresponding values for `CC#N` [acetonitrile] + CCCCNCCCC are 782.01 ± 2 kg/m3, 776.61 ± 2 kg/m3, 771.2 ± 2 kg/m3 and 765.75 ± 2 kg/m3.
Take `CC#N` [acetonitrile] + CCCN: the mass density in data set [1] (293.15 K) came out at 782.01 ± 2 kg/m3; in data set [1] (298.15 K), 776.61 ± 2 kg/m3; in data set [1] (303.15 K) it was 771.2 ± 2 kg/m3; in data set [1] (308.15 K), 765.75 ± 2 kg/m3.
For `CCCNCCC` [dipropylamine], the mass density in data set [2] (293.15 K) is given as 738.18 ± 2 kg/m3; in data set [2] (298.15 K), 733.64 ± 2 kg/m3; in data set [2] (303.15 K), 729.07 ± 2 kg/m3; in data set [2] (308.15 K), 724.48 ± 2 kg/m3.
The corresponding values for `CCN(CC)CC` [triethylamine] are 727.7 ± 2 kg/m3, 723.02 ± 2 kg/m3, 718.36 ± 2 kg/m3 and 713.65 ± 2 kg/m3.
The corresponding values for `CCCN` [propan-1-amine] are 716.48 ± 2 kg/m3, 711.21 ± 2 kg/m3, 705.88 ± 2 kg/m3 and 700.62 ± 2 kg/m3.
As for `CC(C)(C)N` [2-methyl-2-propanamine], the mass density in data set [2] (293.15 K) is recorded as 692.06 ± 2 kg/m3; in data set [2] (298.15 K), 686.65 ± 2 kg/m3; in data set [2] (303.15 K) it was 681.18 ± 2 kg/m3; in data set [2] (308.15 K), 675.66 ± 2 kg/m3.
Take `CC#N` [acetonitrile] + CCN(CC)CC: the mass density in data set [1] (293.15 K) stood at 782.01 ± 2 kg/m3; in data set [1] (298.15 K), 776.61 ± 2 kg/m3; in data set [1] (303.15 K), 771.2 ± 2 kg/m3; in data set [1] (308.15 K) it was 765.75 ± 2 kg/m3.
On to `CC#N` [acetonitrile] + CCCCN, for which the mass density in data set [1] (293.15 K) was 782.01 ± 2 kg/m3; in data set [1] (298.15 K), 776.61 ± 2 kg/m3; in data set [1] (303.15 K), 771.2 ± 2 kg/m3; in data set [1] (308.15 K) it was 765.75 ± 2 kg/m3.
